{"source": "patent US20250368648A1", "about": "“MULTI-CYCLIC IRAK AND FLT3 INHIBITING COMPOUNDS AND USES THEREOF” (CHILDREN'S HOSPITAL MEDICAL CENTER, priority 2022, published 2025)", "key": {"[1]": {"biological_target": "T1, FLT3 N841I (Homo sapiens, UniProt P36888, N841I)", "T1 construct": "purchased DiscoverX (KINOMEscan); host or cells: E. coli (T7 phage) or HEK-293", "T1 sequence (P36888 27-993 N841I)": "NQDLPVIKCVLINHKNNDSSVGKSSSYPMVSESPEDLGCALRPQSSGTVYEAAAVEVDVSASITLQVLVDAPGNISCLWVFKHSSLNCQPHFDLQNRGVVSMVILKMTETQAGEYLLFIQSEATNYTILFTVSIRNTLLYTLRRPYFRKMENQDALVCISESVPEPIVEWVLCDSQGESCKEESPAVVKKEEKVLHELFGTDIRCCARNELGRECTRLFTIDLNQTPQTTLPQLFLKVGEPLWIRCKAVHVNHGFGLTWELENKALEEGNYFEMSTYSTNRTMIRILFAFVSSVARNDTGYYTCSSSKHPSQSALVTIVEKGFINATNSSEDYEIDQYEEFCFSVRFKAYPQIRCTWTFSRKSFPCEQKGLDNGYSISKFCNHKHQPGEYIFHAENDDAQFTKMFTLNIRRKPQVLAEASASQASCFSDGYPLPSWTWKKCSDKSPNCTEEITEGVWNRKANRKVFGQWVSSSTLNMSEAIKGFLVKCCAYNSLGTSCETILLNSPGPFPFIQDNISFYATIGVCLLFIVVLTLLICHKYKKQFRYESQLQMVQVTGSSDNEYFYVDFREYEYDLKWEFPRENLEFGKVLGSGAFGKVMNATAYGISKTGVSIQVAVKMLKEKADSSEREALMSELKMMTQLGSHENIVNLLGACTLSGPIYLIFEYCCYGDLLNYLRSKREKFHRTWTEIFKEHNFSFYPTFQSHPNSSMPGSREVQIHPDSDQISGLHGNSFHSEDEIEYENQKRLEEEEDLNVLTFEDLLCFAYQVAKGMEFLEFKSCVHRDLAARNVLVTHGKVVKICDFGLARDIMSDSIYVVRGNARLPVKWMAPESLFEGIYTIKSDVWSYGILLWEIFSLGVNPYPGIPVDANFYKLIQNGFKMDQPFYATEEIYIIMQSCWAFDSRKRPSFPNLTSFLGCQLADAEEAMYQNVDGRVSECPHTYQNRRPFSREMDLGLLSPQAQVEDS", "test": "DiscoverX KINOMEscan competition binding, FLT3 N841I", "conditions": "no ATP", "text": "(§1) Kinase binding data were obtained for various exemplary compounds prepared according to Examples 2-15 using the DiscoverX KINOMEscan® active site-directed competition binding site-directed assay protocol described below. […] As a result, the data report thermodynamic interaction affinities (Kd values), rather than IC50 values that are dependent on ATP concentrations. The assay uses a DNA-tagged version of the protein kinase, and an immobilized ligand bound to a solid support. Compounds that directly or indirectly prevent kinase binding to the immobilized ligand reduce the amount of kinase captured on the solid support, which is detected using an ultra-sensitive qPCR method. Affinity constants reported from the assay have been reported to be independent of the immobilized ligand used that is coupled to the solid support (See supplemental information in Fabian, M. A. et. al., (2005) Nat. […] Wodicka, L. […] Biol. 17, 1241-1249.) Kinase-tagged T7 phage strains were prepared in an E. coli host derived from the BL21 strain. E. coli were grown to log-phase and infected with T7 phage and incubated with shaking at 32° C. until lysis. […] Kds were determined using an 11-point 3-fold compound dilution series with three DMSO control points. […] The kinase concentration in the eluates was measured by qPCR. Binding constants (Kds) were calculated with a standard dose-response curve using the Hill equation. […]"}, "[2]": {"biological_target": "T2, FLT3 D835V (Homo sapiens, UniProt P36888, D835V)", "T2 construct": "purchased DiscoverX (KINOMEscan); host or cells: E. coli (T7 phage) or HEK-293", "T2 sequence (P36888 27-993 D835V)": "T1 sequence (P36888 27-993 N841I) with D809V, I815N", "test": "DiscoverX KINOMEscan competition binding, FLT3 D835V", "conditions": "no ATP", "text": "as §1"}}, "note": "Where a chain is given by its changes, count along the chain named.", "data": [{"smiles": "COc1cc2ncc(-c3nc(N[C@H]4CNCC[C@@H]4F)c(F)cc3F)n2nc1C1CCC1", "note": "[Compound 15a, 6-(6-cyclobutyl-7-methoxyimidazo[1,2-b]pyridazin-3-yl)-3,5-difluoro-N-((3S,4S)-4-fluoropiperidin-3-yl)pyridin-2-amine]", "values": [{"measurement": "Kd", "setting": "[1]", "result": 0.25, "unit": "nM"}, {"measurement": "Kd", "setting": "[2]", "result": "< 0.17", "unit": "nM"}]}]}
